# Structures can show the parent of a compound that is named as a salt.
# Biological target: RIPK1 (recombinant GST-RIPK1 kinase domain, residues 1-327) (Homo sapiens (Human), UniProt Q13546)
# Test: RIPK1-ADP-Glo Enzymatic Assay
# Assay type: biochemical
# Settings: ADP-Glo; 25 nM GST-RIPK1, 300 μM ATP; assay lower limit ~25 nM; read-out: RIPK1 V0 Ec50
# Method in brief: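 ADP-Glo luminescence read after 150 min kinase reaction (300 μM ATP, 3 μM dephosphorylated MBP) using 25 nM Sf21-made GST-kinase domain (1-327), preincubated 30 min with compound. HEPES pH 7.3, 1% DMSO; ten-point 1:3 series from 100000 nM, EC50 via four-parameter sigmoidal regression.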
# RIPK1 (recombinant GST-RIPK1 kinase domain, residues 1-327), sequence (Q13546 1-327): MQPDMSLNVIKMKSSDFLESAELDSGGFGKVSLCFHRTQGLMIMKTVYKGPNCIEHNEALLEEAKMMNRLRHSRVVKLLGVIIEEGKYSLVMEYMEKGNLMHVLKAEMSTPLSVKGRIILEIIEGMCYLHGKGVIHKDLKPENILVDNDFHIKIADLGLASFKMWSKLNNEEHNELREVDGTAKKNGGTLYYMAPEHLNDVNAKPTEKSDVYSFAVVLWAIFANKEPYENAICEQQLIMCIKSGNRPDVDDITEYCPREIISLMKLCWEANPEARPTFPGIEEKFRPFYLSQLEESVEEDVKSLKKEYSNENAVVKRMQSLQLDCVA
row,Structure (SMILES),EC50
1,"COc1cncc(C(=O)N2CCC3(CC2)O[C@@H]2CC[C@@H](c4cc(F)cc(F)c4)N2C3=O)n1 [Example 6.41, (5′S,7a′R)-5′-(3,5-difluorophenyl)-1-(6-methoxypyrazine-2-carbonyl)tetrahydro-3′H-spiro[piperidine-4,2′-pyrrolo[2,1-b] [1,3]-oxazol]-3′-one]",131 nM
2,"O=C(c1cnsc1)N1CCC2(CC1)O[C@@H]1CC[C@@H](c3cc(F)cc(F)c3)N1C2=O [Example 5.51, (5′S,7a′R)-5′-(3,5-difluoro-phenyl)-1-(isothiazole-4-carbonyl)tetrahydro-3′H-spiro[piperidine-4,2′-pyrrolo[2,1-b]oxazol]-3′-one]",48.3 nM
3,"O=C1N2[C@@H](CC[C@H]2c2cc(F)cc(F)c2)OC12CN(c1ccnc3ccnn13)C2 [Example 4.134, (5′S,7a′R)-5′-(3,5-difluorophenyl)-1-(pyrazolo[1,5-a]pyrimidin-7-yl)tetrahydro-3′H-spiro[azetidine-3,2′-pyrrolo[2,1-b] [1,3]oxazol]-3′-one]",27.3 nM
4,"N#CC1(NC(=O)c2nc(N3CCC4(CC3)O[C@@H]3CC[C@@H](c5cc(F)cc(F)c5)N3C4=O)ncc2F)CCC1 [Example 7.13, N-(1-cyanocyclobutyl)-2-[(5′S,7a′R)-5′-(3,5-difluorophenyl)-3′-oxotetrahydro-1H,3′H-spiro[piperidine-4,2′-pyrrolo[2,1-b][1,3]oxazol]-1-yl]-5-fluoropyrimidine-4-carboxamide]",191 nM
5,"O=C1N2[C@@H](CC[C@H]2c2ccccc2)OC12CCN(c1cccc3ncnn13)CC2F (single isomer, unassigned) [Example 13.18, (3[S or R], 4 [R or S], 5′S,7a′R)-1-([1,2,4]triazolo[1,5-a]pyridin-5-yl)-3-fluoro-5′-phenyltetrahydro-3′H-spiro[piperidine-4,2′-pyrrolo[2,1-b]oxazol]-3′-one, TFA salt]",< 25 nM
6,"N#Cc1ccc(N2CCC3(CC2)O[C@@H]2CC[C@@H](c4cccc(F)c4)N2C3=O)n2ncnc12 [Example 4.259, 5-[(5′S,7a′R)-5′-(3-fluorophenyl)-3′-oxotetrahydro-1H,3′H-spiro[piperidine-4,2′-pyrrolo[2,1-b] [1,3]oxazol]-1-yl][1,2,4]triazolo[1,5-a] pyridine-8-carbonitrile]",< 25 nM
7,"CC1CN(c2cccc3ncnn23)CCC12O[C@@H]1CC[C@@H](c3cc(F)cc(F)c3)N1C2=O (stereo partly drawn) [Example 4.265, (5′S,7a′R)-5′-(3,5-difluorophenyl)-3-methyl-1-([1,2,4]triazolo[1,5-a]pyridin-5-yl)tetrahydro-3′H-spiro[piperidine-4,2′-pyrrolo[2,1-b] [1,3]oxazol]-3′-one]",28.4 nM
8,"O=C(c1ncccc1Cl)N1CCC2(CC1)O[C@@H]1CC[C@@H](c3cc(F)cc(F)c3)N1C2=O [Example 6.53, (5′S,7a′R)-1-(3-chloropyridine-2-carbonyl)-5′-(3,5-difluorophenyl)tetra-hydro-3′H-spiro [piperidine-4,2′-pyrrolo[2,1-b][1,3]-oxazol]-3′-one]",147 nM
9,"O=C(c1ccnc(C(F)(F)F)c1F)N1CCC2(CC1)O[C@@H]1CC[C@@H](c3cc(F)cc(F)c3)N1C2=O [Example 6.74, (5′S,7a′R)-5′-(3,5-difluorophenyl)-1-[3-fluoro-2-(trifluoro-methyl)pyridine-4-carbonyl]tetrahydro-3′H-spiro[piperidine-4,2′-pyrrolo[2,1-b] [1,3]oxazol]-3′-one]",31.9 nM
10,"COc1cc(C(=O)N2CCC3(CC2)O[C@@H]2CC[C@@H](c4cccc(F)c4)N2C3=O)ccc1F [Example 6.120, (5′S,7a′R)-1-(4-fluoro-3-methoxybenzene-1-carbonyl)-5′-(3-fluoro-phenyl)tetrahydro-3′H-spiro[piperidine-4,2′-pyrrolo[2,1-b][1,3]oxazol]-3′-one]",< 25 nM
11,"O=C(c1ncn2ccccc12)N1CCC2(CC1)O[C@@H]1CC[C@@H](c3cc(F)cc(F)c3)N1C2=O [Example 5.74, (5′S,7a′R)-5′-(3,5-difluoro-phenyl)-1-(imidazo[1,5-a]-pyridine-1-carbonyl)tetra-hydro-3′H-spiro[piperi-dine-4,2′-pyrrolo[2,1-b]oxazol]-3′-one]",42.4 nM
12,"Cc1ncc([C@@H]2CC[C@H]3OC4(CCN(c5ccnc6ccnn56)CC4)C(=O)N32)cc1F [Example 4.89, (5′S,7a′R)-5′-(5-fluoro-6-methylpyridin-3-yl)-1-(pyrazolo[1,5-a]pyrimidin-7-yl)tetrahydro-3′H-spiro[piperidine-4,2′-pyrrolo[2,1-b]oxazol]-3′-one]",29.4 nM
13,"N#Cc1cnc(N2CCC3(CC2)S[C@@H]2CC[C@@H](c4ccccc4)N2C3=O)n2ncnc12 [Example 4.146, 5-[(5′S,7a′R)-3′-oxo-5′-phenyltetrahydro-1H,3′H-spiro[piperidine-4,2′-pyrrolo[2,1-b] [1,3]thiazol]-1-yl] [1,2,4]triazolo[1,5-c] pyrimidine-8-carbonitrile]",< 25 nM
14,"O=C(c1cccc(O)c1)N1CCC2(CC1)O[C@@H]1CC[C@@H](c3cc(F)cc(F)c3)N1C2=O [Example 5.63, (5′S,7a′R)-5′-(3,5-difluoro-phenyl)-1-(3-hydroxy-benzoyl)tetrahydro-3′H-spiro[piperidine-4,2′-pyrrolo[2,1-b]oxazol]-3′-one]",< 25 nM
15,"CC1CN(C(=O)c2ccccc2)CCC12O[C@@H]1CC[C@@H](c3cc(F)cc(F)c3)N1C2=O (stereo partly drawn) [Example 6.110, (5′S,7a′R)-1-(benzene-carbonyl)-5′-(3,5-difluorophenyl)-3-methyltetrahydro-3′H-spiro[piperidine-4,2′-pyrrolo[2,1-b][1,3]-oxazol]-3′-one]",< 25 nM
16,"COc1cc(N2CCC3(CC2)O[C@@H]2CC[C@@H](c4cc(F)cc(F)c4)N2C3=O)ncc1C#N [Example 4.43, 6-[(5′S,7a′R)-5′-(3,5-difluorophenyl)-3′-oxotetrahydro-1H,3′H-spiro[piperidine-4,2′-pyrrolo[2,1-b] [1,3]oxazol]-1-yl]-4-methoxypyridine-3-carbonitrile]",< 25 nM
17,"O=C(c1cc(Cl)ccc1F)N1CCC2(CC1)O[C@@H]1CC[C@@H](c3cc(F)cc(F)c3)N1C2=O [Example 5.61, (5′S,7a′R)-1-(5-chloro-2-fluorobenzoyl)-5′-(3,5-difluorophenyl)tetrahydro-3′H-spiro[piperidine-4,2′-pyrrolo[2,1-b]oxazol]-3′-one]",< 25 nM
18,"N#Cc1cccc(C(=O)N2CCC3(CC2)O[C@@H]2CC[C@@H](c4cc(F)cc(F)c4)N2C3=O)c1F [Example 6.33, 3-[(5′S,7a′R)-5′-(3,5-difluorophenyl)-3′-oxotetrahydro-1H,3′H-spiro[piperidine-4,2′-pyrrolo[2,1-b][1,3]oxazole]-1-carbonyl]-2-fluorobenzonitrile]",40.2 nM

# Now from value to compound:
row,EC50,Structure (SMILES)
1,< 25 nM,"O=C1N2[C@@H](CC[C@H]2c2ccccc2)OC12CCN(c1ncc(Br)c3ncnn13)CC2 [Example 4.239, (5′S,7a′R)-1-(8-bromo [1,2,4]triazolo[1,5-c]pyrimidin-5-yl)-5′-phenyltetrahydro-3′H-spiro[piperidine-4,2′-pyrrolo[2,1-b] [1,3]oxazol]-3′-one]"
2,< 25 nM,"Cc1ccc([C@@H]2CC[C@H]3OC4(CCN(C(=O)c5ccccc5)CC4)C(=O)N32)c(F)c1 [Example 17.11, (5′S,7a′R)-1-benzoyl-5′-(2-fluoro-4-methylphenyl)tetrahydro-3′H-spiro[piperidine-4,2′-pyrrolo[2,1-b]oxazol]-3′-one]"
3,761 nM,"O=C1N2[C@@H](CC[C@H]2c2ccccc2)OC12CCN(c1cc(C3CC3)ccn1)CC2 [Example 11.22, (5′S,7a′R)-1-(4-cyclopropylpyridin-2-yl)-5′-phenyltetrahydro-3′H-spiro[piperidine-4,2′-pyrrolo[2,1-b][1,3]oxazol]-3′-one]"
4,558 nM,"O=C(c1ccccc1)N1CCC2(CC1)O[C@@H]1CC[C@@H](c3cnsc3)N1C2=O [Example 17.7, (5′S,7a′R)-1-benzoyl-5′-(isothiazol-4-yl)tetrahydro-3′H-spiro[piperidine-4,2′-pyrrolo[2,1-b]oxazol]-3′-one]"
5,319 nM,"Cc1nc(N2CCC3(CC2)O[C@@H]2CC[C@@H](c4ccccc4)N2C3=O)sc1C [Example 11.32, (5′S,7a′R)-1-(4,5-dimethyl-1,3-thiazol-2-yl)-5′-phenyltetrahydro-3′H-spiro[piperidine-4,2′-pyrrolo[2,1-b][1,3]oxazol]-3′-one]"
6,< 25 nM,"O=C1N2[C@@H](CC[C@H]2c2ccccc2F)OC12CCN(c1cc(Cl)ncn1)CC2 [Example 4.99, (5′S,7a′R)-1-(6-chloropyrimidin-4-yl)-5′-(2-fluorophenyl)tetrahydro-3′H-spiro[piperidine-4,2′-pyrrolo[2,1-b]oxazol]-3′-one]"
7,93 nM,"O=C1N2[C@@H](CC[C@H]2c2ccccc2)OC12CCN(c1ccc(-n3ccnc3)nn1)CC2 [Example 11.18, (5′S,7a′R)-1-[6-(1H-imidazol-1-yl)pyridazin-3-yl]-5′-phenyltetrahydro-3′H-spiro[piperidine-4,2′-pyrrolo[2,1-b][1,3]oxazol]-3′-one]"
8,191 nM,"COc1ccnc(N2CCC3(CC2)O[C@@H]2CC[C@@H](c4ccccc4)N2C3=O)c1 [Example 11.30, (5′S,7a′R)-1-(4-methoxypyridin-2-yl)-5′-phenyltetrahydro-3′H-spiro[piperidine-4,2′-pyrrolo[2,1-b][1,3]oxazol]-3′-one]"
9,< 25 nM,"O=C1N2[C@@H](CC[C@H]2c2ccccc2)OC12CCN(c1ccnc3c(F)cnn13)CC2 [Example 4.1, (5′S,7a′R)-1-(3-fluoropyrazolo[1,5-a]pyrimidin-7-yl)-5′-phenyltetrahydro-3′H-spiro[piperidine-4,2′-pyrrolo[2,1-b]oxazol]-3′-one]"

# — patent US12180226B2, “Spirotricycle RIPK1 inhibitors and methods of uses thereof” (Merck Sharp & Dohme LLC, priority 2021, dated 2024)
